Results as given in the NIST ThermoML archive (doi:10.1016/j.jct.2004.08.004).
Values joined by “and” are separate entries in the source; they are usually repeats but may differ in a detail not shown here. Equal entries are not always repeated.

Details: Liquid, Transpiration method

CCCCCCCCCCCC#N [n-dodecanenitrile]
Details	vapor or sublimation pressure [kPa]
298.2 K	0.00052
301.2 K	0.00071
306.1 K	0.00111
312.2 K	0.00186
315.1 K	0.00239
318.2 K	0.00323
319.2 K	0.0036
322.2 K	0.00462
325.2 K	0.0059
328.2 K	0.00742
331.2 K	0.00936
334.2 K	0.0117
337.2 K	0.01464
340.2 K	0.01821
343.2 K	0.02303
346.2 K	0.02783
349.2 K	0.03419
352.3 K	0.04237
355.3 K	0.05317
358.2 K	0.06363
361.2 K	0.07929
364.2 K	0.09431
367.1 K	0.1148

CCCCCCCC#N [octanenitrile]
Details	vapor or sublimation pressure
283.2 K	0.01192 kPa
286.2 K	0.0152 kPa
289.2 K	0.01964 kPa
292.2 K	0.02498 kPa
295.2 K	0.03092 kPa
298.2 K	0.03898 kPa
301.2 K	0.04949 kPa and 0.04849 kPa
304.2 K	0.06148 kPa
307.1 K	0.07561 kPa
310.2 K	0.09243 kPa and 0.09473 kPa

CCCCCCCCCCCCCCCCC#N [heptadecanenitrile]
Details	vapor or sublimation pressure [kPa]
348.2 K	0.00055
351.2 K	0.00072
354.2 K	0.00093
357.2 K	0.00117
360.2 K	0.00156
363.2 K	0.00201
366.2 K	0.00252
369.1 K	0.00316
372.1 K	0.00402
376.2 K	0.00532
379.2 K	0.00678
382.2 K	0.00824
385.2 K	0.01022

CCCCCCCCCC#N [1-decanenitrile]
Details	vapor or sublimation pressure [kPa]
295.2 K	0.00359
298.3 K	0.00484
302.2 K	0.00692
305.6 K	0.00928
308.7 K	0.01188
311.7 K	0.01511
313.1 K	0.01667
315.2 K	0.01966
316.2 K	0.02172
319.2 K	0.02728
322.2 K	0.03317
326.3 K	0.04574

CCCCCCCCCCCCCCC#N [1-tetradecyl cyanide]
Details	vapor or sublimation pressure [kPa]
336.2 K	0.00105
339.2 K	0.00137
342.1 K	0.00176
345.2 K	0.00219
348.1 K	0.00287
351.2 K	0.00356
354.2 K	0.00459
357.2 K	0.00567
360.2 K	0.00704
363.2 K	0.00901
366.2 K	0.01122
369.1 K	0.0138
372.1 K	0.017

CCCCCCCCCCCCCCCC#N [hexadecanenitrile]
Details	vapor or sublimation pressure [kPa]
345.1 K	0.00096
348.1 K	0.00128
351.2 K	0.00165
354.2 K	0.00212
357.2 K	0.00262
360.2 K	0.00342
363.2 K	0.00434
366.2 K	0.00532
369.2 K	0.00658
372.1 K	0.00826
376.2 K	0.0112
379.2 K	0.0136
382.2 K	0.01642

CCCCCCCCCCCCC#N [dodecanecarbonitrile]
Details	vapor or sublimation pressure [kPa]
301.2 K	0.00024
313.3 K	0.00075
318.1 K	0.0012
324.1 K	0.00205
327.2 K	0.0028
330.2 K	0.00364
333.1 K	0.00466
336.2 K	0.00594
339.2 K	0.00754
342.1 K	0.0095
345.2 K	0.01168
348.2 K	0.01466
351.2 K	0.01796
354.2 K	0.02244
357.2 K	0.02764
360.2 K	0.03471
363.2 K	0.04232

CCCCCCCCCCC#N [1-decylcyanide]
Details	vapor or sublimation pressure [kPa]
290.3 K	0.00062
298.2 K	0.00131
305.2 K	0.00255
307.2 K	0.00308
309.2 K	0.00374
310.2 K	0.00402
313.2 K	0.0051
314.2 K	0.00577
319.1 K	0.00834
319.2 K	0.00877
322.1 K	0.01069
322.2 K	0.0113
325.2 K	0.0144
325.3 K	0.01379
327.2 K	0.01646
328.2 K	0.01792
331.3 K	0.02254
332.2 K	0.02447
334.2 K	0.02763
337.2 K	0.03454
337.3 K	0.03505
340.3 K	0.04264

CCCCCCCCC#N [nonanenitrile]
Details	vapor or sublimation pressure
285.2 K	0.0039 kPa
286.2 K	0.00449 kPa
288.2 K	0.00519 kPa
290.2 K	0.0064 kPa
291.7 K	0.00714 kPa
293.2 K	0.00797 kPa
295.2 K	0.00992 kPa
296.2 K	0.01052 kPa
298.2 K	0.0124 kPa
299.2 K	0.0135 kPa
301.2 K	0.01585 kPa
302.2 K	0.01722 kPa
304.2 K	0.0198 kPa
305.2 K	0.02231 kPa
307.2 K	0.02482 kPa
308.2 K	0.02855 kPa
310.2 K	0.03154 kPa
311.2 K	0.03619 kPa
313.2 K	0.04037 kPa
316.2 K	0.05039 kPa and 0.05346 kPa
319.2 K	0.06245 kPa
320.2 K	0.06797 kPa
323.2 K	0.08366 kPa

CCCCCCC#N [heptanenitrile]
Details	vapor or sublimation pressure [kPa]
280.2 K	0.02893
283.2 K	0.03746
286.2 K	0.04773
289.2 K	0.05977
292.2 K	0.07501
295.2 K	0.09393
298.2 K	0.1138
301.2 K	0.1417
304.2 K	0.1723
307.2 K	0.2092

CCCCCCCCCCCCCC#N [tetradecanenitrile]
Details	vapor or sublimation pressure [kPa]
327.2 K	0.00109
330.2 K	0.00139
333.2 K	0.00183
336.2 K	0.00236
339.2 K	0.00306
342.1 K	0.00383
345.2 K	0.00491
348.1 K	0.00628
351.2 K	0.00777
354.2 K	0.00982
357.2 K	0.01221
360.2 K	0.01474
363.2 K	0.01847
366.2 K	0.02305
369.2 K	0.02799
